The values that follow come from patent US20260253701A1, “EEG BIOMARKERS FOR ALPHA5 PAM DOSAGE DETERMINATION AND THERAPEUTIC MONITORING” (priority 2022, published 2026).

The target of assay [1] is T1, α5 subunit receptors (Homo sapiens, UniProt P18507+P31644). Conditions: 3 μM; higher levels more strongly target α1, α2, & α3 subunit receptors; cited from earlier work.
Target sequence in this assay (P28472 26-473): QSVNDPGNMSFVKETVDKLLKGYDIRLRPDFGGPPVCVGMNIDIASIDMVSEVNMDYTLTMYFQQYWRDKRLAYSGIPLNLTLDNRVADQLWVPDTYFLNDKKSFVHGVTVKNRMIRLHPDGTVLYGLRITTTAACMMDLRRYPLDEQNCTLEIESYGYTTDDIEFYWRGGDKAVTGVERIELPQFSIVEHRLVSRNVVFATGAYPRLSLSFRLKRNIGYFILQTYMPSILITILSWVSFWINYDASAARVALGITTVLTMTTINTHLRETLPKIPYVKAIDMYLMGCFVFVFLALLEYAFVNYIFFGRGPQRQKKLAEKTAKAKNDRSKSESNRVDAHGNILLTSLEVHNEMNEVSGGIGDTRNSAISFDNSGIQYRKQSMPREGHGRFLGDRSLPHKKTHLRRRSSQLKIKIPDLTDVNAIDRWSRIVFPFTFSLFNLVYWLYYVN
Target sequence in this assay (P18507 40-467): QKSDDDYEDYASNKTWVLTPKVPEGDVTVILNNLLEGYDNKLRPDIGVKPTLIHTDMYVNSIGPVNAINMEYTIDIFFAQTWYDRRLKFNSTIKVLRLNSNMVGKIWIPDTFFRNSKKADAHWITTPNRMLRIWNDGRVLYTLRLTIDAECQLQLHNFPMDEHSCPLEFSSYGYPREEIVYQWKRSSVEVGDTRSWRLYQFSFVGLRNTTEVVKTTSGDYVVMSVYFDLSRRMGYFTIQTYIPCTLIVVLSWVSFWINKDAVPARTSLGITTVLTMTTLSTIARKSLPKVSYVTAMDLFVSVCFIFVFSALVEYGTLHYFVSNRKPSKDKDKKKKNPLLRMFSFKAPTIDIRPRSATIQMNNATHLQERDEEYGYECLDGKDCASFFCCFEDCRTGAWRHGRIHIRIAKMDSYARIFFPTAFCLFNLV
Target sequence in this assay (P31644 32-462): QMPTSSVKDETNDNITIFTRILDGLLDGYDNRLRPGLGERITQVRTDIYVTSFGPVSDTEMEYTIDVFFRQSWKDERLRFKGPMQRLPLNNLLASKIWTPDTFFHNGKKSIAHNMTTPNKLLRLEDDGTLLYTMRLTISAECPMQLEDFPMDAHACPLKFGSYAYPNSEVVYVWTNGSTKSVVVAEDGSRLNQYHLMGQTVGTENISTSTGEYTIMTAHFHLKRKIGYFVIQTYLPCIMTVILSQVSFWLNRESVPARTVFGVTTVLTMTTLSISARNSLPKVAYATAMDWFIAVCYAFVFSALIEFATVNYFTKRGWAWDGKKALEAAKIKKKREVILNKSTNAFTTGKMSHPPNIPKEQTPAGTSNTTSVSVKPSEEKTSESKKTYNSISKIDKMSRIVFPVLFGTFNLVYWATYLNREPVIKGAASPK
The test system of assay [2] is chronically stressed mice. Conditions: mouse, in vivo; cited from earlier work.
The target in assay [3] is T1, α5 subunit receptors. Put plainly: whole-cell voltage-clamp recordings of tonic inhibition current in human cortical L2/3 Pyr neurons. Type of assay: cell-based. The arrangement: Neocortical tissue resected during tumor resection and anterior temporal lobectomy; from tissue; host or cells: human neocortical slices (resected frontal/temporal lobe tissue), L2/3 pyramidal neurons. From the text:
Electrophysiology Data. We used whole-cell voltage-clamp recordings of baseline tonic inhibition current and tonic inhibition current during exposure to α5-PAM in human cortical L2/3 Pyr neurons (10 cells: 9 cells from 3 male subjects, 1 cell from 1 subject) from patients undergoing a standard anterior temporal lobectomy or tumor resection from the frontal or temporal lobe. Written informed consent was obtained from all participants, in accordance with the Declaration of Helsinki and the University Health Network Research Ethics board.
The data was collected using surgery resection, solutions, tissue preparation, and recording equipment described in Chameh et al., 2021 Nature Communications, 12(1), 2497 and Yao et al., 2022 Cell Reports, 38(2). Neocortical tissue resected during tumor resection and anterior temporal lobectomy was immediately submerged in ice-cold (~4° C.) cutting solution and transferred to a recording chamber within 20 minutes.
For recordings, slices were transferred to a recording chamber mounted on a fixed-stage upright microscope (Axioskop 2 FS MOT; Carl Zeiss, Germany). Slices were continually perfused at 4 ml/min with standard aCSF at 32-34° C. Whole-cell patch-clamp recordings were obtained using a Multiclamp 700 A amplifier, Axopatch 200B amplifier, and pClamp 9.2 and pClamp 10.6 data acquisition software (Axon instruments, Molecular Devices, USA). Subsequently, electrical signals were digitized at 20 kHz using a 1320X digitizer. For voltage-clamp recordings of tonic current, low-resistance patch pipettes (2-4 MΩ) were filled with a CsCl-based solution containing (in mM) 140 CsCl, 10 EGTA, 10 Hepes, 2 MgCl2, 2 Na2ATP, 0.3 GTP, and 5 QX314 adjusted to pH 7.3 with CsOH. The junction potential was calculated to be 4.3 mV and the holding potential was-74.3 mV after junction potential correction. In this configuration, 5 μM GABA, 25 μM AP5, 10 μM CNQX, and 10 μM CGP-35348 were first applied to generate larger GABA-dependent currents and assess baseline tonic inhibition currents while also blocking AMPA, NMDA, and GABAB mediated currents. […]
Target sequence in this assay (P31644 32-462): as above
Target sequence in this assay (P28472 26-473, further chain): as the sequence (P28472 26-473) above
Target sequence in this assay (P18507 40-467): as the sequence (P18507 40-467) above

SMILES strings stand for the structures.

In the case of `C#Cc1ccc2c(c1)C(c1ccccc1F)=N[C@H](C)c1c(C(=O)N(C)C)ncn1-2` [α5-PAM, GL-II-73], the subunit selectivity entry on α5 subunit receptors [1] is recorded as “selectively targeting α5 subunit receptors”. Besides, in assay [2], the “effect in chronically stressed mice” value is “pro-cognitive effects”. The “mean amplitude of tonic inhibitory current relative to endogenous current in picrotoxin condition” value at α5 subunit receptors [3] (3 μM with 5 μM GABA, ± standard error of the mean, n=10 cells, baseline 65.86±10.28) worked out at 95.28±14.52 pA. Moreover, on α5 subunit receptors [3] (therapeutically relevant dose (3 μM) of α5-PAM in addition to GABA, mean±standard deviation, GABA alone −65.9±30.8), the “tonic inhibition current magnitude” value is −95.3±43.6 pA. Besides, the “increase in current magnitude” value at α5 subunit receptors [3] (α5-PAM in addition to GABA vs GABA alone) was 52%.
